Laboratory results: patent US8420633B2 (Hoffmann-La Roche Inc., priority 2010, dated 2013)
Like-named read-outs stand apart in the source and are kept apart here.

Molecular target: T1, human V1a receptor (Homo sapiens, UniProt P37288)
T1 construct: expressed in transfected cells; host or cells: HEK293 cells, transiently transfected; membranes prepared
Test: human V1a receptor binding (3H-Vasopressin SPA, HEK293 membranes)
Procedure: The human V1a receptor was cloned by RT-PCR from total human liver RNA. The coding sequence was subcloned in an expression vector after sequencing to confirm the identity of the amplified sequence. […] Cell membranes were prepared from HEK293 cells transiently transfected with the expression vector and grown in 20 liter fermenters with the following protocol.
50 g of cells are resuspended in 30 ml freshly prepared ice cold Lysis buffer (50 mM HEPES, 1 mM EDTA, 10 mM magnesium dichloride adjusted to pH=7.4+complete cocktail of protease inhibitor (Roche Diagnostics)). Homogenized with Polytron for 1 min and sonicated on ice for 2×2 minutes at 80% intensity (Vibracell sonicator). The preparation is centrifuged 20 min at 500 g at 4° C., the pellet is discarded and the supernatant centrifuged 1 hour at 43,000 g at 4° C. (19,000 rpm). The pellet is resuspended in 12.5 ml Lysis buffer+12.5 ml sucrose 20% and homogenized using a Polytron for 1-2 min. The protein concentration is determined by the Bradford method and aliquots are stored at −80° C. until use. For binding studies 60 mg Yttrium silicate SPA beads (Amersham®) are mixed with an aliquot of membrane in binding buffer (50 mM Tris, 120 mM sodium chloride, 5 mM potassium chloride, 2 mM calcium dichloride, 10 mM magnesium dichloride) for 15 minutes with mixing. 50 μl of bead/membrane mixture is then added to each well of a 96 well plate, followed by 50 μl of 4 nM 3H-Vasopressin (American Radiolabeled Chemicals). For total binding measurement 100 μl of binding buffer are added to the respective wells, for non-specific binding 100 μl of 8.4 mM cold vasopressin and for compound testing 100 μl of a serial dilution of each compound in 2% dimethyl sulfoxide. The plate is incubated 1 h at room temperature, centrifuged 1 min at 1000 g and counted on a Packard Top-Count. Non-specific binding counts are subtracted from each well and data is normalized to the maximum specific binding set at 100%. To calculate an IC50 the curve is fitted using a non-linear regression model (XLfit) and the Ki is calculated using the Cheng-Prussoff equation.

[1] = 3H-Vasopressin displacement, membranes of HEK293 cells transiently transfected with human V1a, Ki from IC50 by Cheng-Prussoff, read-out: pKi (hV1a) (converted)

T1 sequence (P37288 whole entry): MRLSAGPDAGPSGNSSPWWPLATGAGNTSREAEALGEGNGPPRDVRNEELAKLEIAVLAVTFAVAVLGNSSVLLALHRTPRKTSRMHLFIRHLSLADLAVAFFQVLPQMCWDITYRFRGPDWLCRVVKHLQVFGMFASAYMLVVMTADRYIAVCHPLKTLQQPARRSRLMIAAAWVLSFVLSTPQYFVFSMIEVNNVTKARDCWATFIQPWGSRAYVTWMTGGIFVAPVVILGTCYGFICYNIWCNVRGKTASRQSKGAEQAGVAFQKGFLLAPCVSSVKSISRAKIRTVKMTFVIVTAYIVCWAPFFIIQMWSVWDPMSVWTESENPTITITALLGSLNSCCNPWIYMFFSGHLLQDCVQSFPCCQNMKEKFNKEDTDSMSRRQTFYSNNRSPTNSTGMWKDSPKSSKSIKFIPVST

Row | Compound | Ki [1] | Ki
1 | CC(C)(C)OC(=O)N1Cc2cc(Cl)ccc2-n2c(nnc2[C@H]2CC[C@H](c3cccc(F)c3Cl)CC2)C1 [Example 16, trans-8-Chloro-1-[4-(2-chloro-3-fluoro-phenyl)-cyclohexyl]-4H,6H-2,3,5,10b-tetraaza-benzo[e]azulene-5-carboxylic acid tert-butyl ester] | 4.17 nM | –
2 | CC(C)(C)OC(=O)N1Cc2cc(Cl)ccc2-n2c(nnc2[C@H]2CC[C@H](c3cccc4ccccc43)CC2)C1 [Example 19, trans-8-Chloro-1-(4-naphthalen-1-yl-cyclohexyl)-4H,6H-2,3,5,10b-tetraaza-benzo[e]azulene-5-carboxylic acid tert-butyl ester] | – | 6.03 nM
3 | COc1ccc(F)cc1[C@H]1CC[C@H](c2nnc3n2-c2ccc(Cl)cc2CN(C(=O)OC(C)(C)C)C3)CC1 [Example 22, trans-8-Chloro-1-[4-(5-fluoro-2-methoxy-phenyl)-cyclohexyl]-4H,6H-2,3,5,10b-tetraaza-benzo[e]azulene-5-carboxylic acid tert-butyl ester] | 11.2 nM | –
